# Patent US20140094461A1, “BIOMARKERS FOR HEDGEHOG INHIBITOR THERAPY” (priority 2011, published 2014)
# Tests used:
# medulloblastoma = assay: Phase I dose escalation trial, adult medulloblastoma patients: clinical response; assay type: in vivo, human
# Excerpt: Adult cancer patients including patients with medulloblastoma, were enrolled into an ongoing phase I, dose escalation trial of methyl-4′-trifluoromethoxy-biphenyl-3-carboxylic acid [6-(cis-2,6-dimethyl-morpholin-4-yl)-pyridin-3-yl]-amide to evaluate safety and tolerability of methyl-4′-trifluoromethoxy-biphenyl-3-carboxylic acid [6-(cis-2,6-dimethyl-morpholin-4-yl)-pyridin-3-yl]-amide and assess maximally tolerated dose of methyl-4′-trifluoromethoxy-biphenyl-3-carboxylic acid [6-(cis-2,6-dimethyl-morpholin-4-yl)-pyridin-3-yl]-amide for adult patients. Archival FFPE tumor specimens collected prior to the start of the trial are available for analysis by the method of the invention from 3 enrolled medulloblastoma patients in this trial.
# Based on the 8-gene and 5-gene predictive model, the method of the invention was used to determine the Hedgehog activation status in tumor for these 3 patients. The two responders were determined to have Hedgehog-activated tumor while the tumor from the non-responder was called non-Hedgehog-activated. In addition, the single genes, SPHK1, OTX2, SFRP1, PDLIM3, or SHROOM2 were each used to determine the Hedgehog activation status based on the pre-established cut-off for each of the genes. By each of the single gene, the same Hedgehog-activated and non-Hedgehog-activated calls were made to the two responders and one non-responder, respectively. Among the 3 patients, only one patient had adequate tumor tissue samples available for additional mutational analysis of the PTCH1 and SMO gene. […] Inactivating PTCH1 mutations have been identified as a major mechanism of constitutively activating Hedgehog pathway in medulloblastoma. Therefore, identification of this PTCH1 mutation provides a mechanistic basis for Hedgehog pathway activation and observed clinical activity against Hedgehog signaling inhibitor in this patient and further validates the finding by the method of the invention.
# [1] = system: basal cell carcinoma (BCC); assay: Phase I dose escalation trial, adult BCC patients with PTCH or SMO mutations: clinical response; assay type: in vivo, human
# Excerpt: In addition to the Hedgehog-activated medulloblastoma, basal cell carcinoma (BCC) is another cancer type that is mostly driven by mutations or genetic lesions of the Hedgehog pathway genes that lead to constitutive activation of the Hedgehog pathway. […] In an ongoing phase I, dose escalation trial of methyl-4′-trifluoromethoxy-biphenyl-3-carboxylic acid [6-(cis-2,6-dimethyl-morpholin-4-yl)-pyridin-3-yl]-amide, an Hedgehog signaling inhibitor antagonizing SMO, adult BCC patients were enrolled among patients with other solid tumors. Mutational analysis of PTCH1 and SMO by directly sequencing was performed to the archival tumor specimens collected at the time of diagnosis from the enrolled BCC patients. […] The method of the invention was used to determine the Hedgehog activation status of BCC tumors from these patients. With both the 5-gene and 8-gene models, the probability score of all 6 cases were above the pre-specified cut-off and therefore all were called Hedgehog-activated. Among these 6 patients, 2 achieved confirmed partial response on methyl-4′-trifluoromethoxy-biphenyl-3-carboxylic acid [6-(cis-2,6-dimethyl-morpholin-4-yl)-pyridin-3-yl]-amide treatment, 2 had stable disease for more than 6 month, and the other 2 patients discontinued methyl-4′-trifluoromethoxy-biphenyl-3-carboxylic acid [6-(cis-2,6-dimethyl-morpholin-4-yl)-pyridin-3-yl]-amide due to adverse events after less than 2 months of therapy which might be too brief to observe any clinical activities. […] The method of the invention can be used for identifying other types of tumor with the same underlining Hedgehog-mutation driven etiology that might preferentially benefit from a Hedgehog signaling inhibitor therapy.
# [2] = medulloblastoma patient 1, daily dose of 200 mg
smiles,measurement,setting,value
"Cc1c(C(=O)Nc2ccc(N3C[C@@H](C)O[C@@H](C)C3)nc2)cccc1-c1ccc(OC(F)(F)F)cc1 [methyl-4′-trifluoromethoxy-biphenyl-3-carboxylic acid [6-(cis-2,6-dimethyl-morpholin-4-yl)-pyridin-3-yl]-amide]",time of treatment until progression,"medulloblastoma; 3rd medulloblastoma patient, daily dose of 200 mg",52 days
same,clinical outcome,"medulloblastoma; 3rd medulloblastoma patient, daily dose of 200 mg, non-Hedgehog-activated tumor",progressed rapidly
same,duration of response before disease progression,medulloblastoma; [2],4 months
same,time of treatment until partial response,medulloblastoma; [2],2 months
same,tumor response by the RECIST criteria,"medulloblastoma; medulloblastoma patient 1, daily dose of 200 mg, Hedgehog-activated tumor",partial response (PR)
same,response measured by positron emission tomography (PET),"medulloblastoma; metastatic medulloblastoma patient without measurable lesion, 1500 mg daily dose, Hedgehog-activated tumor, PTCH1 mutation",metabolic partial response
same,duration of metabolic partial response before disease relapse,"medulloblastoma; metastatic medulloblastoma patient, 1500 mg daily dose",7 months
same,number of patients with stable disease for more than 6 month,[1]; of 6 BCC patients with PTCH or SMO mutations,2 patients
same,number of patients with confirmed partial response,"[1]; of 6 BCC patients with PTCH or SMO mutations, all called Hedgehog-activated",2 patients
same,number of patients who discontinued due to adverse events,"[1]; of 6 BCC patients, after less than 2 months of therapy",2 patients
